Laboratory results: ChEMBL document CHEMBL3425485 (J Med Chem, 2015)
Activity calls are given as the source filed them. The rule behind the calls is not given here.

Key:
[1] = Total plasma clearance in iv dosed rat; type: ADME, organism-based
[2] = biological target: T1, Cytochrome P450 1A1 (Homo sapiens, UniProt P04798); assay: Drug metabolism assessed as recombinant CYP1A1 (unknown origin)-mediated compound intrinsic clearance measured per mg of protein; type: ADME; conditions: recombinant enzyme
T1 sequence (P04798 whole entry): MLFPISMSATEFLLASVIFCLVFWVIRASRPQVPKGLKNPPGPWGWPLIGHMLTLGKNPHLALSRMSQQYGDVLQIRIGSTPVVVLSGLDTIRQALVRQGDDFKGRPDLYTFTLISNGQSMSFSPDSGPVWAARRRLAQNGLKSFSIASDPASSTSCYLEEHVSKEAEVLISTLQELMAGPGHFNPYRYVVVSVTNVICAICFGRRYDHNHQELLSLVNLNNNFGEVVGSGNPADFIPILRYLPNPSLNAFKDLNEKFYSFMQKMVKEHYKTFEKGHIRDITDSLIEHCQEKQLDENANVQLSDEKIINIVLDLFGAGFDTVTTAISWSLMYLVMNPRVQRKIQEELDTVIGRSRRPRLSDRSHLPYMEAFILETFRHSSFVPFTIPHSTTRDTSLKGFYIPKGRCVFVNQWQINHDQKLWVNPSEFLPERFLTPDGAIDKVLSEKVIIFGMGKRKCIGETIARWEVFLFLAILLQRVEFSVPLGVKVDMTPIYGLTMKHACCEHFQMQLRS

[3] = Drug metabolism in rat kidney microsomes assessed as compound turnover; type: ADME
[4] = Drug metabolism in rat lung microsomes assessed as compound turnover; type: ADME
[5] = tested on: HeLa; assay: Selectivity for BRCA1 shRNA-transfected human HeLa cells over wild type human HeLa cells
[6] = Intrinsic clearance in human liver microsomes measured per mg of protein
[7] = biological target: Poly [ADP-ribose] polymerase 1 (Homo sapiens, UniProt P09874)
Description: Inhibition of PARP1 (unknown origin)

[8] = Plasma clearance in rat; type: ADME
[9] = tested on: A549; assay: cells; conditions: Homo sapiens
Description: Cytotoxicity against wild type human A549 cells assessed as inhibition of cell proliferation after 5 to 7 days by CellTiter-Blue assay

[10] = biological target: T2, PARP 1, 2 and 3 (Homo sapiens) (UniProt P09874+Q9Y6F1+Q9UGN5); conditions: CAPAN-1, 50 to 100 mg/kg
Description: Inhibition of PARP activity in tumor of immunocompromised mouse xenografted with BRCA2-deficient human Capan1 cells assessed as incorporation of [3H]NAD in PAR chains in response to nicked DNA at 50 to 100 mg/kg, po measured after 24 hrs

[11] = tested on: MDA-MB-436; conditions: Homo sapiens, 50 mg/kg
Description: Antitumor activity against human MDA-MB-436 cells harboring BRCA1 mutant xenografted in immunocompromised mouse assessed as tumor growth inhibition at 50 mg/kg, po administered daily

[12] = tested on: Plasma; assay: Plasma trough concentration in human at 300 mg/day; conditions: read-out: Cmin
[13] = Drug metabolism in iv dosed bile cannulated rat assessed as parent compound recovery
[14] = tested on: Plasma; assay: Plasma trough concentration in human at 40 mg/day; conditions: read-out: Cmin
[15] = Fraction unbound in human plasma
[16] = Drug metabolism in iv dosed bile cannulated dog assessed as parent compound recovery
[17] = tested on: DoTc2-4510; assay: cells; conditions: Homo sapiens
Description: Cytotoxicity against human DoTc2-4510 cells carrying BRCA2 mutant assessed as inhibition of cell proliferation after 5 to 7 days by CellTiter-Blue assay

[18] = in vitro; conditions: human, BT20 cells
Description: Cytotoxicity against human BT20 cells assessed as inhibition of cell proliferation after 5 to 7 days by CellTiter-Blue assay

[19] = Volume of distribution at steady state in rat; conditions: in vivo
[20] = Oral bioavailability in dog; conditions: in vivo
[21] = tested on: HeLa; assay: cells; conditions: Homo sapiens
Description: Cytotoxicity against wild type human HeLa cells assessed as inhibition of cell proliferation after 5 to 7 days by CellTiter-Blue assay

[22] = cells; conditions: Homo sapiens, SUM149PT
Description: Cytotoxicity against human SUM149PT cells carrying BRCA1 mutant assessed as inhibition of cell proliferation after 5 to 7 days by CellTiter-Blue assay

[23] = biological target: T2, PARP 1, 2 and 3 (Homo sapiens); conditions: MDA-MB-436, 50 to 100 mg/kg
Description: Inhibition of PARP activity in tumor of immunocompromised mouse xenografted with human MDA-MB-436 cells harboring BRCA1 mutant assessed as incorporation of [3H]NAD in PAR chains in response to nicked DNA at 50 to 100 mg/kg, po measured after 24 hrs

[24] = Plasma concentration in CD-1 mouse at 50 mg/kg, po after 24 hrs
[25] = organism: Rattus norvegicus; assay: Terminal half life in rat; type: ADME, organism-based; conditions: in vivo
[26] = Cytotoxicity against human SUM1315MO2 cells carrying BRCA1 mutant assessed as inhibition of cell proliferation after 12 days by CellTiter-Blue assay; conditions: SUM1315MO2, 288 h
[27] = cells; conditions: Homo sapiens, UWB1289
Description: Cytotoxicity against human UWB1.289 cells carrying BRCA1 mutant assessed as inhibition of cell proliferation after 5 to 7 days by CellTiter-Blue assay

[28] = tested on: HeLa; assay: Cytotoxicity against human HeLa cells transfected with BRCA1 shRNA assessed as reduction of cell viability after 5 to 7 days by CellTiter-Blue assay; type: functional
[29] = biological target: T2, PARP 1, 2 and 3 (Homo sapiens); conditions: CAPAN-1
Description: Inhibition of PARP in BRCA2-deficient human CAPAN-1 cells assessed as inhibition of hydrogen peroxide-induced PARylation by cell-based assay

[30] = Volume of distribution at steady state in dog; conditions: in vivo
[31] = in vivo; conditions: dog, plasma
[32] = Antitumor activity against BRCA2-deficient human Capan1 cells xenografted in immunocompromised mouse assessed as tumor growth inhibition at 80 mg/kg, po qd for 2 to 4 weeks; conditions: CAPAN-1, po, read-out: TGI
[33] = in vitro; conditions: human, UWB1.289 cells expressing BRCA1
Description: Cytotoxicity against human UWB1.289 cells expressing BRCA1 assessed as inhibition of cell proliferation after 5 to 7 days by CellTiter-Blue assay

[34] = tested on: MDA-MB-436; conditions: Homo sapiens, 80 mg/kg
Description: Antitumor activity against human MDA-MB-436 cells harboring BRCA1 mutant xenografted in immunocompromised mouse assessed as tumor growth inhibition at 80 mg/kg, po qd for 1 to 2 weeks

[35] = Terminal half life in dog; conditions: in vivo
[36] = Fraction unbound in mouse plasma
[37] = biological target: T2, PARP 1, 2 and 3 (Homo sapiens); conditions: HeLa
Description: Inhibition of PARP in human HeLa cells assessed as inhibition of hydrogen peroxide-induced PARylation by cell-based assay

[38] = tested on: A549; assay: cells; conditions: Homo sapiens; remark: listed apart in the source
Description: Cytotoxicity against human A549 cells transfected with BRCA2 shRNA assessed as inhibition of cell proliferation after 5 to 7 days by CellTiter-Blue assay

[39] = biological target: T2, PARP 1, 2 and 3 (Homo sapiens); conditions: A2780
Description: Inhibition of PARP in human A2780 cells assessed as inhibition of hydrogen peroxide-induced PARylation by cell-based assay

Poly [ADP-ribose] polymerase 1, sequence (P09874 whole entry): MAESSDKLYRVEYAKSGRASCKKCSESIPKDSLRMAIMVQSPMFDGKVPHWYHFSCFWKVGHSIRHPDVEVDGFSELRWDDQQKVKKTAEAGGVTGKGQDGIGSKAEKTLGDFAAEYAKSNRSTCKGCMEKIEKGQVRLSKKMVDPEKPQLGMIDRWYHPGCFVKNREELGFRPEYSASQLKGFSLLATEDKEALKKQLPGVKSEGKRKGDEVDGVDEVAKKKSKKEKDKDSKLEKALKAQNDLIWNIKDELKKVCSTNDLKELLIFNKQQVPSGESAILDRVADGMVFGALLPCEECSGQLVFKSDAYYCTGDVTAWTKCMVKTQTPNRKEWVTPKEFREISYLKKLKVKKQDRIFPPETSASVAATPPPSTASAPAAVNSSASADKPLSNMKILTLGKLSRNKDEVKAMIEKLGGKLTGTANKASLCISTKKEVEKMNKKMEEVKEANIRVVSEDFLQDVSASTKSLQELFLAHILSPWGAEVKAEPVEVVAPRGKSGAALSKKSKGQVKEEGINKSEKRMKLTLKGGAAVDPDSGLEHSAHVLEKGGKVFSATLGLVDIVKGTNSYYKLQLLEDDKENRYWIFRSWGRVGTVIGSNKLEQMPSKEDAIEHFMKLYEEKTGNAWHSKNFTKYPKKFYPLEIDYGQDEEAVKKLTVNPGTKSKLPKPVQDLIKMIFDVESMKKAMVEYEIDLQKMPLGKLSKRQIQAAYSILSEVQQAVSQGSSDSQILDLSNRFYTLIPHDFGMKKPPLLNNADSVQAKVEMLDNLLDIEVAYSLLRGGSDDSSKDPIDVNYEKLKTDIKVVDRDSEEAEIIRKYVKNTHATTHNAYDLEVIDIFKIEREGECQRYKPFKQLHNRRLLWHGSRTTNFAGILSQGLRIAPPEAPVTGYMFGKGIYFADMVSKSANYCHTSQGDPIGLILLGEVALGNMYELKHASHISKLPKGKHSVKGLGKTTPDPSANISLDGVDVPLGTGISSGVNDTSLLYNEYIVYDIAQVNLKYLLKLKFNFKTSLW

## CNC(C)(C)c1ccc(-n2cc3cccc(C(N)=O)c3n2)cc1
[1]
  clearance: 30 mL/min/kg
[2]
  CL: 0.4 µL/min

## CN(C)Cc1ccc(-n2cc3cccc(C(N)=O)c3n2)cc1
[3]
  Drug metabolism: metabolite_detected
[4]
  Drug metabolism: metabolite_detected
[5]
  Selectivity ratio: >10
[2]
  CL: 8.7 µL/min

## NC(=O)c1cccc2cn(-c3ccc([C@H]4CCCNC4)cc3)nc12
[6]
  microsomal CLint: 4 µL/min/mg
[2]
  CL: 7 µL/min

## NC(=O)c1cccc2cn(-c3ccc4c(c3)CCNC4)nc12
[1]
  clearance: 30 mL/min/kg
[2]
  CL: 0.7 µL/min

## NC(=O)c1cccc2cn(-c3ccc(C4CCCN4)cc3)nc12 (stereo not drawn)
[2]
  CL: 22 µL/min

## NC(=O)c1cccc2cn(-c3ccc(C4CCCNC4)cc3)nc12 (stereo not drawn)
[2]
  CL: 11 µL/min

## O=C(O)c1cccc2cn(-c3ccc([C@@H]4CCCNC4)cc3)nc12
[7]
  IC50: 3.8 nM

## NC(=O)c1cccc2cn(-c3ccccc3)nc12
[8]
  clearance: 30 mL/min/kg

## CNCc1ccc(-n2cc3cccc(C(N)=O)c3n2)cc1
[2]
  CL: 6 µL/min

## NC(=O)c1cccc2cn(-c3ccc([C@@H]4CCCNC4)cc3)nc12 [NIRAPARIB]
[9]
  CC50: 1760 nM
[10]
  inhibition: > 90%
[11]
  inhibition: Active
[12]
  concentration: > 2000 nM
[13]
  dose excreted: 45%
[14]
  concentration: 288 nM
[15]
  fraction unbound: 0.16
[16]
  dose excreted: < 5%
[6]
  microsomal CLint: 3 µL/min/mg
[17]
  CC50: 23 nM
[18]
  CC50: 2200 nM
[19]
  Vd: 6.9 L/kg
[20]
  bioavailability: 57%
[21]
  CC50: 852 nM
[22]
  CC50: 24 nM
[23]
  inhibition: > 90%
[24]
  concentration at 24 h: 100 nM
[25]
  beta t1/2: 3.4 h
[26]
  CC50: 20 nM
[27]
  CC50: 56 nM
[28]
  CC50: 34 nM
[29]
  IC90: 50 nM
[30]
  Vd: 12.3 L/kg
[31]
  clearance: 31 mL/min/kg
[32]
  inhibition in vivo at 80 mg/kg: 60%
[33]
  CC50: 975 nM
[34]
  TGI: Active
[35]
  half-life: 5.7 h
[36]
  fraction unbound: 0.26
[2]
  CL: 16 µL/min
[37]
  IC90: 46 nM
[38]
  CC50: 11 nM
[39]
  IC90: 52 nM
